# Where two headings read alike, the source gives them in different places.
# Legend:
# [1] = Biodistribution by whole body autoradiography; format: in vivo, male Sprague Dawley rats; details: rats, [^14C] TH302 50 mg/kg single i.v. bolus
# Procedure: TH302 to rats. Five male Sprague Dawley rats were assigned to one dose group. Non-radiolabeled TH302 (0.06 g) was weighed into an appropriate formulation bottle, a solution of 153 μL of [^14C] TH302 was measured and transferred to the formulation bottle, followed by the addition of 6.85 mL of 50 PEG400 in saline. The resulting formulation was cold-sterilized by filtration through a 0.22 μm mesh size commercial filter. The dosing formulation was kept at ambient temperature and in the dark pending dose administration. Animals were administered radiolabelled TH302 by intravenous injection of the formulation at a dose of 50 mg/kg wherein a radioactivity of about 100 μCi was administered. Following administration of TH302, the animals were sacrificed at selected time-points and carcasses were flash-frozen and processed for sectioning. A series of sagittal and para-sagittal sections were obtained from each carcass and were exposed to highly sensitive film until adequate imprinting of radioactivity was obtained. The pictures obtained were analyzed semi-quantitatively using computerized densitometry.
# [2] = Pharmacokinetics in Sprague-Dawley rats (single dose i.v. and p.o.); format: in vivo, male Sprague-Dawley rats; details: male, Sprague-Dawley, rat, rats; for clearance: read-out: CL (converted); for Vd: read-out: Vss; for AUC(0-t): read-out: AUC(0-t); for Cmax: read-out: Cmax; for MRT: read-out: MRT
# Procedure: Pharmacokinetic studies were performed in male CD-1 (50 mg/kg i.p. or orally (p.o.)) or female nude mice (50 mg/kg i.v. or i.p.), male Sprague-Dawley rats (1, 5, 20 and 50 mg/kg i.v. and 100 mg/kg, p.o.), beagle dogs (20 mg/kg, i.v.) and cynomologus monkeys (20 mg/kg i.v.). Plasma TH302 concentrations were analyzed using a LC/MS method and the pharmacokinetic parameters computed using a noncompartmental method. Interspecies scaling was performed according to standard methods.
# TH302 was dissolved in 50% PEG400/Saline to obtain a final concentration of 25 mg/mL, and then was further diluted to yield 25, 10, 2.5 and 0.5 mg/mL formulations of TH302 (pH The formulations were prepared just before dosing. The concentration of TH302 in dosing solution was confirmed by HPLC-UV. Male Sprague Dawley rats (body weight: 200 g to 230 g) were used in this study. Before the pharmacokinetic studies, animals were randomly assigned to four treatment groups cannulated in the carotid artery for serial blood sampling. All rats were administered a single intravenous bolus dose over one minute via the tail vein. The concentrations of TH302 in plasma were determined using a high performance liquid chromatography/mass spectrometry (HPLC/MS/MS) method. […]
# [3] = in vivo, iv, 1 mg/kg, 1 mg/kg i.v. bolus, MEAN
# [4] = in vivo, iv, 5 mg/kg, 5 mg/kg i.v. bolus, MEAN
# [5] = in vivo, iv, 20 mg/kg, 20 mg/kg i.v. bolus, MEAN
# [6] = in vivo, iv, 20 mg/kg, 20 mg/kg i.v. bolus, individual animals
# [7] = in vivo, iv, 50 mg/kg, 50 mg/kg i.v. bolus, MEAN
# [8] = plasma, iv, 1 mg/kg, 1 mg/kg i.v. bolus, MEAN
# [9] = plasma, iv, 1 mg/kg, 1 mg/kg i.v. bolus, individual animals
# [10] = plasma, iv, 5 mg/kg, 5 mg/kg i.v. bolus, MEAN
# [11] = plasma, iv, 5 mg/kg, 5 mg/kg i.v. bolus, individual animals
# [12] = plasma, iv, 20 mg/kg, 20 mg/kg i.v. bolus, MEAN
# [13] = plasma, iv, 20 mg/kg, 20 mg/kg i.v. bolus, individual animals
# [14] = plasma, iv, 50 mg/kg, 50 mg/kg i.v. bolus, MEAN
compound,measurement,setting,value
Cn1c(COP(=O)(NCCBr)NCCBr)cnc1[N+](=O)[O-] [TH302],distribution of radioactivity,[1],"associated with the gastro-intestinal (GI) tract, its contents, and the kidney"
same,clearance,[2]; [3],78.2 mL/min/kg
same,Vd,[2]; [3],2.05 L/kg
same,clearance,[2]; [4],102 mL/min/kg
same,Vd,[2]; [4],5.09 L/kg
same,Vd,"[2]; in vivo, iv, 5 mg/kg, 5 mg/kg i.v. bolus, individual animals",2.51 L/kg
same,clearance,[2]; [5],102 mL/min/kg
same,Vd,[2]; [5],2.29 L/kg
same,clearance,[2]; [6],98.5 mL/min/kg
same,Vd,[2]; [6],2.29 L/kg
same,clearance,[2]; [7],98.5 mL/min/kg
same,Vd,[2]; [7],1.67 L/kg
same,half-life,"[2]; in vivo, iv, 1 mg/kg i.v. bolus, MEAN, read-out: T1/2 (converted)",2.03 h
same,half-life,"[2]; in vivo, iv, 5 mg/kg i.v. bolus, MEAN, read-out: T1/2 (converted)",3.75 h
same,half-life,"[2]; in vivo, iv, 20 mg/kg i.v. bolus, MEAN, read-out: T1/2 (converted)",4.37 h
same,half-life,"[2]; in vivo, iv, 50 mg/kg i.v. bolus, MEAN, read-out: T1/2 (converted)",1.32 h
same,bioavailability,"[2]; in vivo, po, 100 mg/kg p.o., read-out: absolute oral bioavailability",77.3%
same,half-life,"[2]; in vivo, po, after p.o. dosing 100 mg/kg, read-out: terminal plasma t1/2 (converted)",1.59 h
same,AUC(0-inf),[2]; [8],221 ng·h/mL
same,AUC(0-t),[2]; [8],217 ng·h/mL
same,Cmax,[2]; [8],802 ng/mL
same,MRT,[2]; [8],0.89 h
same,AUC(0-inf),[2]; [9],178 ng·h/mL
same,AUC(0-t),[2]; [9],175 ng·h/mL
same,clearance,[2]; [9],93.3 mL/min/kg
same,Cmax,[2]; [9],683 ng/mL
same,MRT,[2]; [9],0.95 h
same,half-life,"[2]; plasma, iv, 1 mg/kg, 1 mg/kg i.v. bolus, individual animals, read-out: T1/2 (converted)",1.75 h
same,Vd,[2]; [9],1.83 L/kg
same,AUC(0-inf),[2]; [10],826 ng·h/mL
same,AUC(0-t),[2]; [10],799 ng·h/mL
same,Cmax,[2]; [10],3820 ng/mL
same,MRT,[2]; [10],0.9 h
same,AUC(0-inf),[2]; [11],732 ng·h/mL
same,AUC(0-t),[2]; [11],730 ng·h/mL
same,clearance,[2]; [11],114 mL/min/kg
same,Cmax,[2]; [11],3840 ng/mL
same,Vd,[2]; [11],7.68 L/kg
same,AUC(0-inf),[2]; [12],3310 ng·h/mL
same,AUC(0-t),[2]; [12],3270 ng·h/mL
same,Cmax,[2]; [12],13500 ng/mL
same,MRT,[2]; [12],0.59 h
same,AUC(0-inf),[2]; [13],2920 ng·h/mL
same,AUC(0-t),[2]; [13],2830 ng·h/mL
same,clearance,[2]; [13],114 mL/min/kg
same,Cmax,[2]; [13],13400 ng/mL
same,Vd,[2]; [13],2.89 L/kg
same,AUC(0-inf),[2]; [14],8470 ng·h/mL
same,AUC(0-t),[2]; [14],8460 ng·h/mL
same,Cmax,[2]; [14],35500 ng/mL
same,MRT,[2]; [14],0.29 h
